Experiments:
Assay in all cases: KinaseProfiler off-target kinase profiling
Assay type in all cases: biochemical
Conditions in all cases: 10 μM, ATP near Km
[1] = molecular target: MAP3K5 (Homo sapiens (Human), UniProt Q99683)
Protocol: (§1) Representative compounds (Examples 12, 32, 26 and 2) of the invention were tested for off-target kinase activity at a concentration of 10 μM by Millipore, Inc. in their KinaseProfiler™ service against all the kinases available in their full kinase panel. Compounds were run in duplicate at a concentration of ATP near the Km for each individual kinase according to Millipore's specifications. The results are shown in Table B. Data are reported as percent of control (POC) and are the average of the two replicates.

[2] = molecular target: SRPK2 (Homo sapiens (Human), UniProt P78362)
Sequence of SRPK2 (P78362 whole entry): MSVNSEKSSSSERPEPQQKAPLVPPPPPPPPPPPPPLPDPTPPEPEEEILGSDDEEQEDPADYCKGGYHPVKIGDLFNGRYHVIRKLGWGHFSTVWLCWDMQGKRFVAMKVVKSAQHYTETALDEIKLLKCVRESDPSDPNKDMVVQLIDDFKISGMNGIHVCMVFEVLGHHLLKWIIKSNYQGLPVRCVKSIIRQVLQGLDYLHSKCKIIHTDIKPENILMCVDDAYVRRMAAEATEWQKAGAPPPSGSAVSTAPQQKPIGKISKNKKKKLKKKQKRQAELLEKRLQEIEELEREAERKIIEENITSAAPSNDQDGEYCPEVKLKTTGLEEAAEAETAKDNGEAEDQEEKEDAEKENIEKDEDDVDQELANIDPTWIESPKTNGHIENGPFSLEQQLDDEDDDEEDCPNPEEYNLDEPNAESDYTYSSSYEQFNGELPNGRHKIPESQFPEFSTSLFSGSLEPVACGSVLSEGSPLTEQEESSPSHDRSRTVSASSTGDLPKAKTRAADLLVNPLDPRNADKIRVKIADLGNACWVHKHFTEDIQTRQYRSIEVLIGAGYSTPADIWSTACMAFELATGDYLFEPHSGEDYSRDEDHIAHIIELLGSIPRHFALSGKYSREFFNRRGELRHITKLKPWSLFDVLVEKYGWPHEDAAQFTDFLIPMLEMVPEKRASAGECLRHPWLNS
Protocol: as §1

[3] = molecular target: ALK (Homo sapiens (Human), UniProt Q9UM73)
Protocol: as §1

[4] = molecular target: TBK1 (Homo sapiens (Human), UniProt Q9UHD2)
Protocol: as §1

[5] = molecular target: CAMK1d (Homo sapiens (Human), UniProt Q8IU85)
Protocol: as §1

[6] = molecular target: ALK4 (Homo sapiens (Human), UniProt P36896)
Protocol: as §1

[7] = molecular target: p70S6K (Homo sapiens (Human), UniProt P23443)
Protocol: as §1

[8] = molecular target: EphA8 (Homo sapiens (Human), UniProt P29322)
Protocol: as §1

[9] = molecular target: CDK5/p35 (Homo sapiens (Human), UniProt Q00535)
Sequence of CDK5/p35 (Q00535 whole entry): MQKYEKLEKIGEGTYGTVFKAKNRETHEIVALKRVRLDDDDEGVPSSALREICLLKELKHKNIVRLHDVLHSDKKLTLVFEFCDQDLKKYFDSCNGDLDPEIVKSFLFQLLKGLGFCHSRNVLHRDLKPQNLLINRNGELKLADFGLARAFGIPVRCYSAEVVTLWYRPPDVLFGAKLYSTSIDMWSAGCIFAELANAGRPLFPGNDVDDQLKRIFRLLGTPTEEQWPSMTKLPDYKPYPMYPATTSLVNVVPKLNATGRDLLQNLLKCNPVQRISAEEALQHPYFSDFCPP
Sequence of CDK5/p35 (Q15078 2-307 partner): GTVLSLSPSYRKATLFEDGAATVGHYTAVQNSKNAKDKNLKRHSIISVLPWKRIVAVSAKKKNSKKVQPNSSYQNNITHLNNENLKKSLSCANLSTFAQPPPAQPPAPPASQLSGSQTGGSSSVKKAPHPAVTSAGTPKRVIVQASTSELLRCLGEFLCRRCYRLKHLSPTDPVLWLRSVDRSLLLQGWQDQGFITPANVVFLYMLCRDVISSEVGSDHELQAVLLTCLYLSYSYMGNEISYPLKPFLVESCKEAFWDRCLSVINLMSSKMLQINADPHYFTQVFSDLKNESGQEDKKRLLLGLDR
Protocol: as §1

[10] = molecular target: CDK9/cyclinT1 (Homo sapiens (Human), UniProt P50750)
Protocol: as §1

[11] = molecular target: MLK1 (Homo sapiens (Human), UniProt P80192)
Protocol: as §1

[12] = molecular target: Plk2 (Homo sapiens (Human), UniProt Q9NYY3)
Protocol: as §1

[13] = molecular target: Ron (Homo sapiens (Human), UniProt Q04912)
Protocol: as §1

[14] = molecular target: Abl-P (Homo sapiens (Human), UniProt P00519)
Protocol: as §1

[15] = molecular target: EGFR (Homo sapiens (Human), UniProt P00533)
Sequence of EGFR (P00533 25-1210): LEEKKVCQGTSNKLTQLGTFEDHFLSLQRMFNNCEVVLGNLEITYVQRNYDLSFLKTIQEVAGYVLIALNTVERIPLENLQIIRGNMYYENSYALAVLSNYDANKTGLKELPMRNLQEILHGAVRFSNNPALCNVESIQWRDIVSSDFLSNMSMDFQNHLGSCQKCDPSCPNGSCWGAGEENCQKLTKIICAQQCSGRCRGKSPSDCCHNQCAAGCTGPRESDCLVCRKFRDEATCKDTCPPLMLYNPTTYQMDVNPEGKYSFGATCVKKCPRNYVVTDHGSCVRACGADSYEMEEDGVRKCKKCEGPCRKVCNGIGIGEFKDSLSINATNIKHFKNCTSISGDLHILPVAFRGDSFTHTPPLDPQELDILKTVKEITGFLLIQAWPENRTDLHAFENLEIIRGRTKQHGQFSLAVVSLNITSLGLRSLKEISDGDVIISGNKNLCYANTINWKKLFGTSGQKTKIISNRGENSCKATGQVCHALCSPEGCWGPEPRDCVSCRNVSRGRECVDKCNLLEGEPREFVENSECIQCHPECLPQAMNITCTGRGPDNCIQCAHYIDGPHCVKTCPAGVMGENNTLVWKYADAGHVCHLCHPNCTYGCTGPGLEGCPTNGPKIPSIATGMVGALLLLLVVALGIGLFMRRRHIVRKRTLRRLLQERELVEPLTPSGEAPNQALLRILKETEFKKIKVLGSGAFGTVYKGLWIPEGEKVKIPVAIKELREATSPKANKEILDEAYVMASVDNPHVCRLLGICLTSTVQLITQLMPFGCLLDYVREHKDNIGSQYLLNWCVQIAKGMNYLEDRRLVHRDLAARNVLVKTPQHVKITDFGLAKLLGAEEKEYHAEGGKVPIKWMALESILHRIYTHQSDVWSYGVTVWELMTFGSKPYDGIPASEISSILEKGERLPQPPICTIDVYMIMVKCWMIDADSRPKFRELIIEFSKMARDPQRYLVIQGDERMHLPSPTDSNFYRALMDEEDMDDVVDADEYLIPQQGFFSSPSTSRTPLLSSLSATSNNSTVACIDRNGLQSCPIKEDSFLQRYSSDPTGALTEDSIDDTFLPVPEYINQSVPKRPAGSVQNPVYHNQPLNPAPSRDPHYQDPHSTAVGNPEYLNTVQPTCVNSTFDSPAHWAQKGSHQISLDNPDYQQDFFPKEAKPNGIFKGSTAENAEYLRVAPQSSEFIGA
Protocol: as §1

[16] = molecular target: CK1gamma1 (Homo sapiens (Human), UniProt Q9HCP0)
Protocol: as §1

[17] = molecular target: STK33 (Homo sapiens (Human), UniProt Q9BYT3)
Protocol: as §1

[18] = molecular target: PASK (Homo sapiens (Human), UniProt Q96RG2)
Protocol: as §1

[19] = molecular target: CHK1 (Homo sapiens (Human), UniProt O14757)
Protocol: as §1

[20] = molecular target: AMPK(A1/B1/G1) (Homo sapiens (Human), UniProt Q13131)
Protocol: as §1

[21] = molecular target: FAK2 (Homo sapiens (Human), UniProt Q14289)
Protocol: as §1

[22] = molecular target: ITK (Homo sapiens (Human), UniProt Q08881)
Protocol: as §1

[23] = molecular target: TEC Activated (Homo sapiens (Human), UniProt P42680)
Protocol: as §1

[24] = molecular target: Bmx (Homo sapiens (Human), UniProt P51813)
Protocol: as §1

[25] = molecular target: MAPKAP-K5 (Homo sapiens (Human), UniProt Q8IW41)
Sequence of MAPKAP-K5 (Q8IW41 whole entry): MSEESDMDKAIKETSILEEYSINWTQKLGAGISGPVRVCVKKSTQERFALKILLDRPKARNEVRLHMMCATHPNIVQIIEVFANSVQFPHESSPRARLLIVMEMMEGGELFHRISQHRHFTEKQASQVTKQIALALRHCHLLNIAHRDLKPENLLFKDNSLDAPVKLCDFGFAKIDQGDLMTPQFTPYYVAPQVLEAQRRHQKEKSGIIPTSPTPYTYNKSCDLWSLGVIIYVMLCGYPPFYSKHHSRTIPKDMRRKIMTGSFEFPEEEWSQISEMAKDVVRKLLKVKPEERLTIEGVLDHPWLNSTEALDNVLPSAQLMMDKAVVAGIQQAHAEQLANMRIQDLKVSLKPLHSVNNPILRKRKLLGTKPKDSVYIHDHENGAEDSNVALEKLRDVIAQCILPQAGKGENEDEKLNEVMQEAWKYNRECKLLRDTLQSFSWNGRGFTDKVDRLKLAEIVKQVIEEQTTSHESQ
Protocol: as §1

[26] = molecular target: JAK2 (Homo sapiens (Human), UniProt O60674)
Protocol: as §1

[27] = molecular target: MRCKalpha (Homo sapiens (Human), UniProt Q5VT25)
Protocol: as §1

[28] = molecular target: TAO3 (Homo sapiens (Human), UniProt Q9H2K8)
Protocol: as §1

[29] = molecular target: CAMK1 (Homo sapiens (Human), UniProt Q14012)
Protocol: as §1

[30] = molecular target: CDK3/cyclinE (Homo sapiens (Human), UniProt Q00526)
Sequence of CDK3/cyclinE (Q00526 whole entry): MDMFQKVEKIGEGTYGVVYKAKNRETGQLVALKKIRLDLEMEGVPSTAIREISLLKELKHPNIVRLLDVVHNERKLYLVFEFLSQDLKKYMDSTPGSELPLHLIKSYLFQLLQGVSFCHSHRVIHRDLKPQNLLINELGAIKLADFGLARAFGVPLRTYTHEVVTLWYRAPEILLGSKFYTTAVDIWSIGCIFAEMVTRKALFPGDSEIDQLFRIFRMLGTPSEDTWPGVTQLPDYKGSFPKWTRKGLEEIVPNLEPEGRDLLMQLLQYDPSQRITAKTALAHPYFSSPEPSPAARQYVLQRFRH
Sequence of CDK3/cyclinE (P24864 whole entry partner): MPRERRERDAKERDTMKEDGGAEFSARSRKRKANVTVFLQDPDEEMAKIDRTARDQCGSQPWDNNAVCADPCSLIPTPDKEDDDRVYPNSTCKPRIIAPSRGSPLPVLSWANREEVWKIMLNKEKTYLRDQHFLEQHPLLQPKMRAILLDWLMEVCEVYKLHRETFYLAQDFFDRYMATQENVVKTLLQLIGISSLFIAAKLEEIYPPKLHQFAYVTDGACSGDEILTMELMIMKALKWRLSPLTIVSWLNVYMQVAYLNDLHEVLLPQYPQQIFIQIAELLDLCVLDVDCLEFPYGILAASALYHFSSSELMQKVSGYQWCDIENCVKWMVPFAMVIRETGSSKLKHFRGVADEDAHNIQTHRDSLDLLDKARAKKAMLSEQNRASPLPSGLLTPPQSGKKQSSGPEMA
Protocol: as §1

[31] = molecular target: ErbB4 (Homo sapiens (Human), UniProt Q15303)
Protocol: as §1

[32] = molecular target: Fyn (Homo sapiens (Human), UniProt P06241)
Sequence of Fyn (P06241 whole entry): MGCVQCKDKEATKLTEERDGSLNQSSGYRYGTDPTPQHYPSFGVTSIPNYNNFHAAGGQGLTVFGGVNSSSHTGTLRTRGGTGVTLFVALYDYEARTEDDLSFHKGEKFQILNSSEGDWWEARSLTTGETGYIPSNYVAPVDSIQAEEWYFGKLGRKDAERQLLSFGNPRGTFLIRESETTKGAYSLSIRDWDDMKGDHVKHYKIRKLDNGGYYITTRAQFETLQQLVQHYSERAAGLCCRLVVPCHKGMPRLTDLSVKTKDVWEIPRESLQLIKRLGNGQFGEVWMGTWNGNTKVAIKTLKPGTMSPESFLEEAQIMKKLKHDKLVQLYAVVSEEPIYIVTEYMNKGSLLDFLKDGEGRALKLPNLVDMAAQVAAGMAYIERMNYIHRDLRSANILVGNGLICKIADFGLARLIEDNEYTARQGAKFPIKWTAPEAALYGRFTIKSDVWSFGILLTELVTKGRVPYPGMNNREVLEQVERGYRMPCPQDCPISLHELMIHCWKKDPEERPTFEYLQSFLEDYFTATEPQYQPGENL
Protocol: as §1

[33] = molecular target: CSK (Homo sapiens (Human), UniProt P41240)
Protocol: as §1

[34] = molecular target: GRK7 (Homo sapiens (Human), UniProt Q8WTQ7)
Protocol: as §1

[35] = molecular target: ROCK-I (Homo sapiens (Human), UniProt Q13464)
Protocol: as §1

[36] = molecular target: PKCtheta (Homo sapiens (Human), UniProt Q04759)
Protocol: as §1

[37] = molecular target: AKT2 (Homo sapiens (Human), UniProt P31751)
Protocol: as §1

[38] = molecular target: IKKbeta (Homo sapiens (Human), UniProt O14920)
Protocol: as §1

[39] = molecular target: CK2 (Homo sapiens (Human), UniProt P68400)
Sequence of CK2 (P68400 whole entry): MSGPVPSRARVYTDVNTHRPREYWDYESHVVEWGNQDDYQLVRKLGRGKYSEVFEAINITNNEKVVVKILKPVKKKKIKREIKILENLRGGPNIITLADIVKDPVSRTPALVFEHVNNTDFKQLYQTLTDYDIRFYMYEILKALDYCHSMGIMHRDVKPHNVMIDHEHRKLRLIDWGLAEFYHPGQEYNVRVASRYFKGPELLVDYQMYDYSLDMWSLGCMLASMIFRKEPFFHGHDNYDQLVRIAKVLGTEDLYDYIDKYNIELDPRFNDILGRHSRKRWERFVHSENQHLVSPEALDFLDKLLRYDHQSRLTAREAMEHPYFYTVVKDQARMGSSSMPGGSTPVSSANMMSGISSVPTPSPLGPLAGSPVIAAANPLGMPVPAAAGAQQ
Sequence of CK2 (P67870 whole entry partner): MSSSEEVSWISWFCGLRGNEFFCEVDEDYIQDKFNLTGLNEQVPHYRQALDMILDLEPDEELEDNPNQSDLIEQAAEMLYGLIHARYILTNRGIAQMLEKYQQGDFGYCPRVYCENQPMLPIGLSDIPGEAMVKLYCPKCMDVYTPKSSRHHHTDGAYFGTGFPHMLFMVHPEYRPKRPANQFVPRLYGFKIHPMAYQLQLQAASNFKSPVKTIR
Protocol: as §1

SMILES | Avg. POC [1] | Avg. POC [2] | Avg. POC [3] | Avg. POC [4] | Avg. POC [5] | Avg. POC [6] | Avg. POC [7] | Avg. POC [8] | Avg. POC [9] | Avg. POC [10] | Avg. POC [11] | Avg. POC [12] | Avg. POC [13] | Avg. POC [14] | Avg. POC [15] | Avg. POC [16] | Avg. POC [17] | Avg. POC [18] | Avg. POC [19] | Avg. POC [20] | also measured
COCc1ccc2c(c1)C(NC(=O)Nc1c(C)c(-c3cnn(C)c3)nn1-c1ccccc1)COC2 (stereo not drawn) [Example 32, 1-(1′,4-dimethyl-1-phenyl-1H,1′H-[3,4′-bipyrazol]-5-yl)-3-(6-(methoxymethyl)isochroman-4-yl)urea] | 116 POC | 106.5 POC | 127 POC | 108.5 POC | 114 POC | 100.5 POC | 110.5 POC | 109 POC | 112 POC | 106.5 POC | 104.5 POC | 103 POC | 107 POC | 124.5 POC | 102 POC | 111.5 POC | 115 POC | 137 POC | 103 POC | 138.5 POC | Avg. POC [21]: 101.5 POC; Avg. POC [22]: 124 POC; Avg. POC [23]: 108.5 POC; Avg. POC [24]: 106.5 POC; Avg. POC [25]: 108 POC; Avg. POC [26]: 122.5 POC; Avg. POC [27]: 131 POC; Avg. POC [28]: 105 POC; Avg. POC [29]: 100 POC; Avg. POC [30]: 102.5 POC; Avg. POC [31]: 108.5 POC; Avg. POC [32]: 111 POC; Avg. POC [33]: 123 POC; Avg. POC [34]: 117.5 POC; Avg. POC [35]: 103 POC; Avg. POC [36]: 117 POC; Avg. POC [37]: 121 POC; Avg. POC [38]: 105.5 POC; Avg. POC [39]: 97 POC
Cc1c(-c2ccc(=O)n(C)c2)nn(-c2ccccc2)c1NC(=O)NC1CN(CC(F)(F)F)Cc2ccccc21 (stereo not drawn) [Example 26, 1-(4-methyl-3-(1-methyl-6-oxo-1,6-dihydropyridin-3-yl)-1-phenyl-1H-pyrazol-5-yl)-3-(2-(2,2,2-trifluoroethyl)-1,2,3,4-tetrahydroisoquinolin-4-yl)urea] | 116.5 POC | 106 POC | 117 POC | 113 POC | 97 POC | 102.5 POC | 116 POC | 118.5 POC | 110.5 POC | 112.5 POC | 105.5 POC | 101.5 POC | 101 POC | 131 POC | 108 POC | 106.5 POC | 111 POC | 124.5 POC | 70.5 POC | 122.5 POC | Avg. POC [21]: 104.5 POC; Avg. POC [22]: 122 POC; Avg. POC [23]: 113.5 POC; Avg. POC [24]: 109.5 POC; Avg. POC [25]: 101.5 POC; Avg. POC [26]: 134.5 POC; Avg. POC [27]: 124.5 POC; Avg. POC [28]: 109 POC; Avg. POC [29]: 106 POC; Avg. POC [30]: 101.5 POC; Avg. POC [31]: 115.5 POC; Avg. POC [32]: 115.5 POC; Avg. POC [33]: 118.5 POC; Avg. POC [34]: 118 POC; Avg. POC [35]: 112 POC; Avg. POC [36]: 109 POC; Avg. POC [37]: 130 POC; Avg. POC [38]: 103.5 POC; Avg. POC [39]: 110.5 POC
Cc1c(-c2cnn(C)c2)nn(-c2ccccc2)c1NC(=O)N[C@H]1CCCc2ccccc21 [Example 2, (S)-1-(1′,4-dimethyl-1-phenyl-1H,1′H-3,4′-bipyrazol-5-yl)-3-(1,2,3,4-tetrahydronaphthalen-1-yl)urea] | 105 POC | 106 POC | 111 POC | 116 POC | 127 POC | 98.5 POC | 172 POC | 128.5 POC | 124 POC | 127 POC | 75 POC | 102 POC | 106.5 POC | 146.5 POC | 114 POC | 116.5 POC | 110.5 POC | 143 POC | 106.5 POC | 152.5 POC | Avg. POC [21]: 120 POC; Avg. POC [22]: 117.5 POC; Avg. POC [23]: 153 POC; Avg. POC [24]: 113 POC; Avg. POC [25]: 113.5 POC; Avg. POC [26]: 233 POC; Avg. POC [27]: 127.5 POC; Avg. POC [28]: 111 POC; Avg. POC [29]: 109.5 POC; Avg. POC [30]: 105.5 POC; Avg. POC [31]: 148 POC; Avg. POC [32]: 123.5 POC; Avg. POC [33]: 124 POC; Avg. POC [34]: 108.5 POC; Avg. POC [35]: 116.5 POC; Avg. POC [36]: 101 POC; Avg. POC [37]: 132 POC; Avg. POC [38]: 116 POC; Avg. POC [39]: 107 POC
Cc1c(-c2cnn(C)c2)nn(-c2ccccc2)c1NC(=O)NC1CCOc2cc(F)ccc21 (stereo not drawn) [Example 12, 1-(1′,4-dimethyl-1-phenyl-1H,1′H-[3,4′-bipyrazol]-5-yl)-3-(7-fluorochroman-4-yl)urea] | 111 POC | 101.5 POC | 103 POC | 103 POC | 137 POC | 101 POC | 124.5 POC | 122.5 POC | 106.5 POC | 106 POC | 103.5 POC | 103.5 POC | 116.5 POC | 135.5 POC | 109.5 POC | 98.5 POC | 106.5 POC | 125.5 POC | 99.5 POC | 117 POC | Avg. POC [21]: 111 POC; Avg. POC [22]: 114.5 POC; Avg. POC [23]: 122.5 POC; Avg. POC [24]: 115.5 POC; Avg. POC [25]: 96 POC; Avg. POC [26]: 122.5 POC; Avg. POC [27]: 139 POC; Avg. POC [28]: 99 POC; Avg. POC [29]: 102 POC; Avg. POC [30]: 98.5 POC; Avg. POC [31]: 122 POC; Avg. POC [32]: 92.5 POC; Avg. POC [33]: 131.5 POC; Avg. POC [34]: 117 POC; Avg. POC [35]: 116.5 POC; Avg. POC [36]: 117.5 POC; Avg. POC [37]: 127 POC; Avg. POC [38]: 102 POC; Avg. POC [39]: 98 POC
